Data as given in the NIST ThermoML archive (doi:10.1016/j.jct.2016.01.019).
Values joined by “and” are separate entries in the source; they are usually repeats but may differ in a detail not shown here. Equal entries are not always repeated.

Conditions: Liquid; for mass density: 94.64 kPa, Vibrating tube method; for vapor or sublimation pressure: Ebulliometric method (Recirculating still)

CC(O)CO (stereo not given) [1,2-propanediol]
Conditions	mass density [kg/m3]	vapor or sublimation pressure
293.15 K	1036.25	–
298.15 K	1032.61	–
303.15 K	1028.93	–
308.15 K	1025.19	–
313.15 K	1021.42	–
318.15 K	1017.65	–
389.39 K	–	6.67 kPa
396.95 K	–	10 kPa
402.95 K	–	13.33 kPa
408.6 K	–	16.61 kPa
412.95 K	–	19.96 kPa
413.23 K	–	19.99 kPa
417.15 K	–	23.34 kPa
421.2 K	–	26.62 kPa
421.21 K	–	26.66 kPa
424.5 K	–	30 kPa
427.16 K	–	33.33 kPa
427.23 K	–	33.57 kPa
429.55 K	–	36.61 kPa
432.05 K	–	40.01 kPa and 39.99 kPa
433.7 K	–	43.33 kPa
436.07 K	–	46.66 kPa
437.77 K	–	50 kPa
439.74 K	–	53.25 kPa
441.27 K	–	56.74 kPa
443.15 K	–	59.99 kPa

OCCCO [propan-1,3-diol]
Conditions	mass density [kg/m3]	vapor or sublimation pressure
293.15 K	1052.75	–
298.15 K	1049.67	–
303.15 K	1046.55	–
308.15 K	1043.45	–
313.15 K	1040.32	–
318.15 K	1037.18	–
414.2 K	–	6.65 kPa and 6.67 kPa
420.8 K	–	9.93 kPa
427.55 K	–	13.33 kPa
427.6 K	–	13.47 kPa
433.9 K	–	16.75 kPa
438.05 K	–	19.99 kPa
441.95 K	–	23.46 kPa
445.3 K	–	26.66 kPa
448.65 K	–	30.22 kPa
451.65 K	–	33.22 kPa
453.15 K	–	33.33 kPa
454.65 K	–	36.69 kPa
457.45 K	–	39.99 kPa
457.49 K	–	40.04 kPa
459.85 K	–	43.37 kPa
461.95 K	–	46.67 kPa and 46.66 kPa
463.95 K	–	49.97 kPa
465.45 K	–	53.24 kPa
